Values joined by “and” are separate entries in the source; they are usually repeats but may differ in a detail not shown here. Identical values can stand only once. Like-named read-outs stand apart in the source and are kept apart here.
What was measured:
CYP3A4 [1] = biological target: T1, CYP3A4 (Homo sapiens, UniProt P08684)
Excerpt: (§1) To determine the inhibitory potency of compounds on CYP3A4 enzyme, the P450-Glo CYP3A4 luciferin isopropylacetal (Luc-IP) assay was used (Promega, Madison, Wis., USA, Cat. No. V9920). The assay makes use of a luminogenic isopropylacetal (IPA) substrate that is a derivative from beetle luciferin, a substrate of luciferase enzymes. The IPA substrate is converted by CYP3A4 to luciferin, which in turn reacts with luciferase to produce an amount of light that is directly proportional to the activity of CYP3A4. Compounds were serially diluted in DMSO and finally in 400 mM K2HPO4, pH 7.4. 5 μl of compound solution and 5 μl of CYP3A4/substrate solution were combined in the well of a white 384-well Optiplate (Perkin Elmer). The DMSO concentration in the assay was 0.1%. After incubation for 10 minutes at room temperature in the dark, 10 μl of NADPH regeneration system was added and incubation was continued for 10 min. Then, 20 μl of Luciferin Detection Reagent was added to stop the reaction, and incubation was continued for another 20 min. Luminescence was measured on an Envision multimode reader and IC50 values were calculated using XLfit™. […] Instead of in a 96-well plate, the assay was performed in 384-well white Perkin Elmer Optiplate (cat. no. 6007290).

CYP2D6 [2] = biological target: T2, CYP2D6 (Homo sapiens, UniProt P10635)
[3] = mice treated with LM10; cited from earlier work
[4] = biological target: T3, TDO expressed in mouse tumor cells (Mus musculus, UniProt P48776); conditions: immunocompetent mice; cited from earlier work
T3 construct: host or cells: mouse tumor cells
T3 sequence (P48776 whole entry): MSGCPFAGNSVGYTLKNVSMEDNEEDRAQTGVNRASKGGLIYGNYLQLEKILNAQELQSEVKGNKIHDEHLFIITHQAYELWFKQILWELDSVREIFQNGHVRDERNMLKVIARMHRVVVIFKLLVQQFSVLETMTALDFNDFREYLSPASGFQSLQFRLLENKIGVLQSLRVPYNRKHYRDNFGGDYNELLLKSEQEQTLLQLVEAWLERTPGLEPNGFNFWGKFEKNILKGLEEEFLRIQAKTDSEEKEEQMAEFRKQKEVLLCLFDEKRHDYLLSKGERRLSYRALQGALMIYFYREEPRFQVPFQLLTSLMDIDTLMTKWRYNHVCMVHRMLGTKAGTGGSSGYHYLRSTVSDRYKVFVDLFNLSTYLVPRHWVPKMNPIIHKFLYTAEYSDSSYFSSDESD

[5] = biological target: T4, TDO in SW48 colorectal carcinoma cells (Homo sapiens, UniProt P48775); test: Cell-based assay for TDO in SW48 colorectal carcinoma cells (NFK GreenScreen); conditions: 18 hours with L-tryptophan, read-out: IC50 on TDO in cells
T4 construct: Endogenous expression of TDO has been determined in a variety of cancer cell lines; host or cells: SW48 colorectal carcinoma cells
T4 sequence (P48775 whole entry): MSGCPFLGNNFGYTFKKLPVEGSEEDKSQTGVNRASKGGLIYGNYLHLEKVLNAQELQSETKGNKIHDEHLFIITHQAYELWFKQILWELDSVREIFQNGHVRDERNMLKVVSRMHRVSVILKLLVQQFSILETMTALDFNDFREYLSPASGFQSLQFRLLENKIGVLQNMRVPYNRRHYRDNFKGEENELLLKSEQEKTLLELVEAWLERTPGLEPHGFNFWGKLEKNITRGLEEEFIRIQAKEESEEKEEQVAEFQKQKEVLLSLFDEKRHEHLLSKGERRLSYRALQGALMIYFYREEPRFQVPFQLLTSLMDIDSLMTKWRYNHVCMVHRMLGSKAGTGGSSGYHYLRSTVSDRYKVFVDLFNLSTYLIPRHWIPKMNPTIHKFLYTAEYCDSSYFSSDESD

Recombinant TDO = biological target: T5, Recombinant TDO (Homo sapiens, UniProt P48775); test: Biochemical assay for TDO (NFK GreenScreen); conditions: 50 nM TDO, 200 μM L-tryptophan
T5 construct: Recombinant TDO (Seegers, N., et al.) and all other assay components were diluted in TDO reaction buffer
T5 sequence (P48775 whole entry): as above
How it was run: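 Recombinant human TDO (50 nM) preincubated with compound 60 min at room temperature in 100 mM NaH2PO4 pH 7.0, 0.02% Tween-20, with ascorbic acid. Reaction then run 15 min with 200 μM L-tryptophan (final), 0.3% DMSO. NFK product detected by NFK Green fluorescence after 3 h at 37° C; IC50 derived.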

CYP3A4 [6] = biological target: T1, CYP3A4; test: P450-Glo CYP3A4 luciferin isopropylacetal (Luc-IP) assay
Excerpt: as §1

CYP2D6 [7] = biological target: T2, CYP2D6; test: P450-Glo CYP2D6 Luc-IP assay

T1 sequence (P08684 whole entry): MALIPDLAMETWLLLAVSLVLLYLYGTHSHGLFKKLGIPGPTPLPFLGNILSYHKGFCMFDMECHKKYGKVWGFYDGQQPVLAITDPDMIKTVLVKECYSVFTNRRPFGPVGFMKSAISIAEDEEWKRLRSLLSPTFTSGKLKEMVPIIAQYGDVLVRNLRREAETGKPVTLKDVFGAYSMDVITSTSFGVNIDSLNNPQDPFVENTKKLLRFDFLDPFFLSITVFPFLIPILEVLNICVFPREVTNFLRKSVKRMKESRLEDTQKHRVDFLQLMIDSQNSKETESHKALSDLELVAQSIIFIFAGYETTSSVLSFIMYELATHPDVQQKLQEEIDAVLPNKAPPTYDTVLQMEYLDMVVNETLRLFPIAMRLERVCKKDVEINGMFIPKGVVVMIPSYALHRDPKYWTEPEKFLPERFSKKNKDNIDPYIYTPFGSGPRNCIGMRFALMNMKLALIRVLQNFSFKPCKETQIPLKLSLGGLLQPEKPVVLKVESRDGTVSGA
T2 sequence (P10635 whole entry): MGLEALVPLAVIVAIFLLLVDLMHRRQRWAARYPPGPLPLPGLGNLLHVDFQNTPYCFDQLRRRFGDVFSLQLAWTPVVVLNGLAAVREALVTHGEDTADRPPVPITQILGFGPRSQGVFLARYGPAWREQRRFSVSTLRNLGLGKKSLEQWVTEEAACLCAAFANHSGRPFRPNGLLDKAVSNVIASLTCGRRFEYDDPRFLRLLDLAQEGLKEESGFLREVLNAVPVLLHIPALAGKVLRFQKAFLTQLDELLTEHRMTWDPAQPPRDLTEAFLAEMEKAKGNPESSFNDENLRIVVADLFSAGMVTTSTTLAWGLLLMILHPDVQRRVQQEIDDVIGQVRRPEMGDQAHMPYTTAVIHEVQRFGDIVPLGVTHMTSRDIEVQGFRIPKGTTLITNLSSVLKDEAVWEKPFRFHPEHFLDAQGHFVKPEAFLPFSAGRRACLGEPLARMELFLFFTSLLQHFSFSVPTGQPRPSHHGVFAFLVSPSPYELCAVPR

IC50 (CYP3A4 [1])	IC50 (CYP2D6 [2])	IC50 [5]	IC50 (Recombinant TDO)	IC50 (CYP3A4 [6])	IC50 (CYP2D6 [7])	Molecule	Signs of toxicity in the liver or any other organs [3]	Effect on TDO-mediated prevention of tumor cell rejection [4]
> 10 µM	> 10 µM	–	–	–	–	N-[3-(dimethylamino)propyl]-4-(6-fluoro-1H-indol-3-yl)benzamide [Example 8]	–	–
5 to 10 µM	> 10 µM	–	–	–	–	N-(2-diethylaminoethyl)-4-(6-fluoro-1H-indol-3-yl)benzamide [Example 81]	–	–
–	–	–	–	–	–	Fc1ccc2c(/C=C/c3nn[nH]n3)c[nH]c2c1 [LM10]	did not show any signs of toxicity	reverted
> 10 µM	> 10 µM	–	–	–	–	N-(3,3-difluorocyclobutyl)-4-(6-fluoro-1H-indol-3-yl)benzamide [Example 114]	–	–
–	–	≤ 0.2 µM	< 1 µM	> 10 µM	> 10 µM	O=C(NCC1(F)CCNCC1)c1ccc(-c2c[nH]c3cc(F)ccc23)cc1 [Example 76, 4-(6-Fluoro-1H-indol-3-yl)-N-[(4-fluoro-4-piperidyl)methyl]benzamide]	–	–
–	–	≤ 0.2 µM	< 1 µM	5 to 10 µM	> 10 µM	O=C(N[C@@H]1CCNC[C@@H]1F)c1ccc(-c2c[nH]c3cc(F)ccc23)cc1 [Example 74, 4-(6-Fluoro-1H-indol-3-yl)-N-[(3S,4R)-3-fluoro-4-piperidyl]benzamide]	–	–
–	–	≤ 0.5 µM and 0.2 to 0.5 µM	< 1 µM	> 10 µM	> 10 µM	NC(=O)CNC(=O)c1ccc(-c2c[nH]c3cc(F)ccc23)cc1 [Example 112, N-(2-amino-2-oxo-ethyl)-4-(6-fluoro-1H-indol-3-yl)benzamide]	–	–
> 10 µM	> 10 µM	–	–	–	–	N-cyclopropyl-4-(6-fluoro-1H-indol-3-yl)benzamide [Example 86]	–	–
–	–	≤ 0.2 µM	< 1 µM	5 to 10 µM	> 10 µM	CCN(CC)CC(C)NC(=O)c1ccc(-c2c[nH]c3cc(F)ccc23)cc1 (stereo not drawn) [Example 23, N-[2-(diethylamino)-1-methyl-ethyl]-4-(6-fluoro-1H-indol-3-yl)benzamide]	–	–
–	–	≤ 0.5 µM and 0.2 to 0.5 µM	1 to 5 µM	5 to 10 µM	> 10 µM	CC(=O)N1CCCC(NC(=O)c2ccc(-c3c[nH]c4cc(F)ccc34)cc2)C1 (stereo not drawn) [Example 119, N-(1-acetyl-3-piperidyl)-4-(6-fluoro-1H-indol-3-yl)benzamide]	–	–
